Laboratory results: patent publication US11419865B2, “Method for inducing a sustained immune response” (Cytocom Inc., priority 2016, dated 2022)
Like-named read-outs stand apart in the source and are kept apart here.

Legend:
[1] = tested on: cancer patients; settings: cited from earlier work
[2] = tested on: systemic lupus patients; test: systemic lupus case reports; type: in vivo, human
Excerpt: […]. […] […].
Psoriasis mostly resolved.

[3] = tested on: Hashimoto's patients; test: Hashimoto's thyroiditis case reports
Method: Patient was taking L-thyroxine and pain medications and 75 mg Zoloft.
Patients was taking Synthroid 150 mcg, Compounded T3 25 mcg, Progesterone 150 mg, Plus lots of supplements like Magnesium, D3, Methyl B12, Methyl folate, Selenium, E, Amino Restore, CLA, NAC, DE, Adaptacin.

[4] = tested on: Shingles; test: shingles case report; type: in vivo, human; settings: 4.5 mg nightly from 2013; before 8 major outbreaks over 18 months
Method: A person diagnosed with Shingles in 2010 over 18 months had 8 major outbreaks, and was treated with acyclovir, and valacyclovir, as the outbreaks continued they prescribed Lidocaine patches and pain medications. […]

[5] = tested on: autistic children, lymphocyte subsets; test: behavioral and immunological assessment in autism during double-blind naltrexone treatment; type: in vivo, human
Excerpt: Opioid-immune interactions in autism: behavioral and immunological assessment during a double-blind treatment with naltrexone.
Changes in natural killer cells and activity were inversely related to plasma beta-endorphin levels.

[6] = tested on: myasthenia gravis patient; test: myasthenia gravis case report; type: in vivo, human; settings: drug interrupted
[7] = tested on: multiple sclerosis (MS) patients; test: double-masked, placebo-controlled crossover pilot trial on quality of life in multiple sclerosis, 80 patients; type: in vivo, human; settings: 4.5 mg nightly
Excerpt: RESULTS: Eighty subjects with clinically definite MS were enrolled, and 60 subjects completed the trial. Ten withdrew before completing the first trial period: 8 for personal reasons, 1 for a non-MS-related adverse event, and 1 for perceived benefit. Database management errors occurred in 4 other subjects, and quality of life surveys were incomplete in 6 subjects for unknown reasons. […] LDN was associated with significant improvement on the following mental health quality of life measures: a 3.3-point improvement on the Mental Component Summary score of the Short Form-36 General Health Survey (p=0.04), a 6-point improvement on the Mental Health Inventory (p<0.01), a 1.6-point improvement on the Pain Effects Scale (p=0.04), and a 2.4-point improvement on the Perceived Deficits Questionnaire (p=0.05). […] Further studies with LDN in MS are warranted.

[8] = tested on: subjects with active Crohn's disease; test: randomized placebo-controlled study, forty subjects with active Crohn's disease; type: in vivo, human
Excerpt: Forty subjects with active Crohn's disease were enrolled in the study. […] Providers and patients were masked to treatment assignment. The primary outcome was the proportion of subjects in each arm with a 70-point decline in Crohn's Disease Activity Index score (CDAI). The secondary outcome included mucosal healing based upon colonoscopy appearance and histology. […].

[9] = tested on: psoriatic arthritis patient; test: psoriatic arthritis case report; type: in vivo, human
[10] = tested on: HIV; test: single blind 90 day randomized bridging clinical trial in Nigeria, asymptomatic HIV+ adults on ART; type: in vivo, human
Method: The differences in CD4 count, CD4%, hemoglobin, viral load, interferon alpha, and standard chemistry panel were measured between treated versus non-treated groups four times throughout the study. […] When used alone, it appears to slow and/or stop the progression of the disease.

[11] = tested on: AIDS; test: 3-month double-blind then open trial in 38 AIDS patients (Kaposi's sarcoma / opportunistic infection); type: in vivo, human
[12] = tested on: children with autism; test: autism, 155 children in 10 studies; type: in vivo, human
Excerpt: 155 children participated in 10 studies; 27 received placebo. […].

[13] = tested on: HIV; settings: 3 mg compounded, with ART, cited from earlier work
[14] = tested on: women with fibromyalgia; test: randomized, double blind, placebo-controlled crossover study, 31 women with fibromyalgia; type: in vivo, human; settings: 4.5 mg daily
Excerpt: Thirty-one women with fibromyalgia participated in the randomized, double blind, placebo-controlled, and counterbalanced, crossover study. […]. An intensive longitudinal design was used to measure daily levels of pain. […]; P=0.016). […]. […] […]; P=0.016). […].

O=C1CC[C@@]2(O)[C@H]3Cc4ccc(O)c5c4[C@@]2(CCN3CC2CC2)[C@H]1O5 [Immediate release naltrexone, naltrexone]
disease course, person, adenocarcinoma of the pancreas with liver metastases ([1]; 4.5 mg once per day at bedtime with i.v. and oral ALA, selenium, silymarin, diet): comparatively stable disease for more than a 3-year period and an improved quality of life
follow-up status, person, Follicular Lymphoma ([1]; 2007 report): remains asymptomatic from their disease, 1 year after their last CT/PET imaging
disease outcome, person, Follicular Lymphoma ([1]; daily in the evening, after 6 months, not compliant with diet, supplement, ALA): clinical and radiological remission
MRSA recurrence, person, systemic lupus ([2]; 1.5 mg): No recurrence of MRSA in 8 years
tolerability, person, systemic lupus ([2]; 1.5 mg starting dose): unable to take it due to insomnia and pruritis
mobility, person, Systemic Lupus ([2]; 3 mg from March 2013, within three weeks): improved mobility
skin, person, Systemic Lupus ([2]; 3 mg increasing to 4.5 mg, within 4 months): skin cleared almost 100%
hospital stays, person, Systemic Lupus ([2]; 4.5 mg): no hospital stays since March of 2013
disease status, person, systemic lupus ([2]; liquid form, 0.1 mg increased weekly to 1.5 mg, with supplements, diet): Lupus, in remission
lab work, person, Hashimoto's ([3]; 1.5 mg): Latest lab work was normal in all areas
side effect, person, Hashimoto Thyroiditis ([3]; 3 mg in morning and 1 mg at night): strange dreams
TPO levels, person, Hashimoto's ([3]; 4.5 mg with T3/T4 capsules from August 2011, initial 350): returned to normal
TgAb, person, Hashimoto's ([3]; titrated 1.5, 3, 4.5 mg, from 77): < 1
outbreaks, person, Shingles [4]: have not had a single outbreak
T-cytotoxic-suppressor (CD4−CD8+) [5]: significant reduction
T-helper-inducers (CD4+CD8−) [5]: significant increase
effect of running out of drug, person, myasthenia gravis [6]: symptoms began to return within 72 hours
tolerability and serious adverse events [7]: well tolerated, and serious adverse events did not occur
improvement on the Mental Component Summary score of the Short Form-36 General Health Survey ([7]; 8 weeks, p=0.04): 3.3 point
subjects with at least a 70-point decline in CDAI scores ([8]; 4.5-mg daily oral, placebo 40%, p=0.009): Eighty-eight
subjects achieving remission with a CDEIS score<6 ([8]; after 12 weeks, placebo 8%): 33%
subjects with endoscopic response (5-point decline in CDEIS) ([8]; after 12 weeks, placebo 28%, p=0.008): 78%
side effects ([8]; vs placebo): Fatigue was the only side effect reported that was significantly greater in subjects receiving placebo
medication use, person, psoriatic arthritis ([9]; 4.5 mg at bedtime, within 10 days): able to discontinue all paid medications as well as the Humira
disease course, person, psoriatic arthritis ([9]; 4.5 mg, last six months): the disease has stabilized and the progressive deterioration has stopped
increase in CD4 count ([10]; about 4.5 mg single oral dose with ART, at 3 months): 44%
BMI ([10]; about 4.5 mg with ART): increase in BMI
opportunistic infections ([10]; about 4.5 mg with ART): reduction in opportunistic infections
improvement in CD4 count vs control group ([10]; about 4.5 mg with ART, at 3 months, control 54 subjects): significantly greater than the control group
Improvement in CD4% ([10]; about 4.5 mg with ART, throughout treatment): the increases were statistically significant
elevated levels of serum alpha interferon (IFN-α) vs placebo ([11]; 1.75 mg nightly at bedtime, 3-month double-blind period, p<0.01): significant drop
survival of patients who did not show a decline in IFN-α ([11]; 2 of the 15): 13%
mean IFN-α level after treatment ([11]; 23 patients with decline, from mean 144.9 IU. over a 12-month period): 11.0 IU.
survival of patients who showed a decline in IFN-α ([11]; Nineteen of the 23, p<0.01): 83%
side effects ([11]; during the conduct of the trial): No side effects were noted
children with statistically significant improvement in symptoms of irritability and hyperactivity ([12]; 98 of the 128 that received naltrexone): 77%
side effects and tolerability ([12]; in vivo): Side effects were mild and the drug was generally well tolerated
improvement in CD4 count vs control group ([13]; at 6 months, p=0.041, 51 vs 49 subjects): significantly greater than the control group
improvement in CD4 count vs control group ([13]; at 9 months, p=0.067): marginally
Improvement in CD4% ([13]; throughout treatment): not statistically significant
fatigue or sleep [14]: not improved fatigue or sleep
tolerability and side effects [14]: rated equally tolerable as placebo, and no serious side effects were reported
mood ([14]; P=0.039): improved mood
general satisfaction with life ([14]; P=0.045): improved general satisfaction with life
participants meeting the criteria for response ([14]; placebo 11%, P=0.05): Thirty-two
